One series has as its system LinkCD. As to the kind of experiment: UV absorbance at […] nm of quenched aliquots, double-reciprocal plot. The conditions noted are these: read-out: Enzyme kinetics (5-FC) / Km; PBS, 37 °C; CD active site. Format: biochemical, Homo sapiens; Saccharomyces cerevisiae.
A further series has as its system Nc1nc(=O)[nH]cc1F. Description: purified protein. Format: biochemical, Saccharomyces cerevisiae. The conditions noted are these: PBS, 37 °C, one experiment.

The record followed here is paper PMC2706098 (Molecular pharmaceutics, 2009).

With `Nc1nc(=O)[nH]cc1F` [5-FC, 5-fluorocytosine], in the series on LinkCD, the Km was determined as 330 ± 40 µM.

In the case of “CD (yeast cytosine deaminase) (Saccharomyces cerevisiae S288C)”, the Vmax in the series with Nc1nc(=O)[nH]cc1F came to 120000 µM/min/mg.
